How the values were obtained:
[1] = system: Myc2345 (DNA, G4) TGAGGGTGGGTAGGGTGGGGAA; experiment: NMR solution structure; details: K+ 10 mM (potassium phosphate); pH 7.0; PEQ:DNA 3:1; end-stacking on 5'- and 3'-tetrads
[2] = system: Myc2345_T23 (DNA, G4) TGAGGGTGGGTAGGGTGGGTAA; experiment: NMR solution structure; details: K+ 10 mM (potassium phosphate); pH 6.5; PEQ:DNA 3:1; end-stacking on 5'- and 3'-tetrads
[3] = system: Myc2345 (DNA, G4) TGAGGGTGGGTAGGGTGGGGAA; experiment: fluorescence competition (TAMRA quenching restored by unlabeled DNA); details: K+ (25 mM potassium phosphate, 75 mM KCl); pH 7, 25°C; C50 is concentration of competing unlabeled DNA; 100 nM 3'-TAMRA-Myc2345_T23, PEQ 10:1
[4] = system: Myc2345_T23 (DNA, G4) TGAGGGTGGGTAGGGTGGGTAA; experiment: CD melting (260 nm); details: K+ 0.6 mM; potassium phosphate, pH 7; 5 μM DNA, 25 μM PEQ
[5] = system: Myc2345 (DNA, G4) TGAGGGTGGGTAGGGTGGGGAA; experiment: CD melting (260 nm); details: K+ 0.6 mM; potassium phosphate, pH 7; 5 μM DNA, 25 μM PEQ
[6] = system: 3'-TAMRA-labeled Myc2345_T23 (DNA, G4) TGAGGGTGGGTAGGGTGGGTAA; experiment: TAMRA fluorescence quenching titration; details: K+ (25 mM potassium phosphate, 75 mM KCl); pH 7, 25°C; 100 nM DNA
[7] = system: Myc2345_T23 (DNA, G4) TGAGGGTGGGTAGGGTGGGTAA; experiment: fluorescence competition (TAMRA quenching restored by unlabeled DNA); details: K+ (25 mM potassium phosphate, 75 mM KCl); pH 7, 25°C; C50 is concentration of competing unlabeled DNA; 100 nM 3'-TAMRA-Myc2345_T23, PEQ 10:1

In the case of COc1cc(/C=C/c2cc(C(N)=O)c3ccccc3[n+]2C)ccc1O, the binding [1] is reported as “yes”, the binding [2] is reported as “yes” and the C50 [3] is reported as 4.86 µM. For the same compound, the ΔTm [4] was 21.1 ± 1.3 °C, the ΔTm [5] was 20.1 ± 0.6 °C and the binding [6] was “yes”. It also gave a C50 [7] of 3.71 µM.
